Assay results published in the CheMixHub ionic liquid set.

Experiment: xn = mol fraction of the nth substance listed

CC[NH+](CC)CC.O=P([O-])(O)O + CS(C)=O
viscosity [mPa·s], 101 kPa
Details | 298.15 K | 303.15 K | 308.15 K
x2 = 0 | 64.3 | 57.1 | 49.5
x2 = 0.0242 | 61.3 | 54.6 | 47.55
x2 = 0.0507 | 58.2 | 51.7 | 45.51
x2 = 0.1295 | 49.7 | 44.43 | 39.41
x2 = 0.1963 | 43.47 | 38.82 | 34.74
x2 = 0.2596 | 37.82 | 34.13 | 30.67
x2 = 0.3272 | 32.61 | 29.61 | 26.81
x2 = 0.3878 | 28.47 | 26.13 | 23.64
x2 = 0.4494 | 24.64 | 22.94 | 20.75
x2 = 0.5141 | 21.1 | 19.68 | 17.92
x2 = 0.5888 | 17.29 | 16.43 | 14.93
x2 = 0.6387 | 15 | 14.42 | 13.14
x2 = 0.7055 | 12.26 | 11.95 | 10.82
x2 = 0.7616 | 10.18 | 9.98 | 9.01
x2 = 0.8342 | 7.58 | 7.36 | 6.75
x2 = 0.8828 | 5.7 | 5.6 | 5.23
x2 = 0.9272 | 4.37 | 4.24 | 3.84
x2 = 0.9543 | 3.31 | 3.2 | 2.98
x2 = 0.9772 | 2.7 | 2.56 | 2.33

CC[n+]1ccn(C)c1.[Br-] + C[NH2+]CCC=C1c2ccccc2CCc2ccccc21.[Cl-] + O
viscosity [mPa·s], 100 kPa
Details | 288.15 K | 298.15 K | 308.15 K | 318.15 K
x2 = 0, x1 = 0.0001802 | 1.141 | 0.911 | 0.744 | 0.627
x2 = 0, x1 = 0.0007203 | 1.147 | 0.916 | 0.748 | 0.632
x2 = 0, x1 = 0.00126 | 1.152 | 0.923 | 0.754 | 0.639

O=C(O)CCl + CCC[N+](CCC)(CCC)CCC.[Br-]
100 kPa, x2 = 0.333
Details | electrical conductivity [S/m] | viscosity [mPa·s]
308.15 K | 0.136 | 61.13
328.15 K | 0.345 | 21.57

CCOS(=O)(=O)[O-].CC[n+]1ccn(C)c1 + CCCCCCO
100 kPa
Details | viscosity [mPa·s]
288.15 K, x1 = 1 | 155.5
293.15 K, x1 = 0.1016 | 7.885
303.15 K, x1 = 0.5956 | 27.85
323.15 K, x1 = 0.4975 | 11.85

CCOS(=O)(=O)[O-].CC[n+]1ccn(C)c1 + CCC(C)O
101 kPa
Details | viscosity [mPa·s]
298.15 K, x1 = 0.2027 | 6.91
298.15 K, x1 = 0.6944 | 39.6
298.15 K, x1 = 0.7957 | 54.2
303.15 K, x1 = 0.2027 | 6.81
303.15 K, x1 = 0.4906 | 17.37
303.15 K, x1 = 0.8916 | 57.3
308.15 K, x1 = 0.3936 | 9.98
308.15 K, x1 = 0.8916 | 46.8
313.15 K, x1 = 0.2027 | 4.59
313.15 K, x1 = 0.3936 | 9.48
313.15 K, x1 = 0.5916 | 17.67
313.15 K, x1 = 1 | 49.4
318.15 K, x1 = 0.2027 | 4.03
323.15 K, x1 = 0.2937 | 5

Cn1cc[n+](CCCN)c1.F[B-](F)(F)F + CS(C)=O
101 kPa, frequency 3 MHz
Details | electrical conductivity [S/m]
293.15 K, x1 = 0.2997 | 0.537
293.15 K, x1 = 0.3997 | 0.334
293.15 K, x1 = 0.5999 | 0.151
293.15 K, x1 = 0.8998 | 0.032
298.15 K, x1 = 0.1003 | 1.08
298.15 K, x1 = 1 | 0.026
303.15 K, x1 = 0.2997 | 0.701
303.15 K, x1 = 0.7001 | 0.151
303.15 K, x1 = 0.8109 | 0.096
303.15 K, x1 = 0.8998 | 0.062
308.15 K, x1 = 0.8109 | 0.12
308.15 K, x1 = 1 | 0.055
313.15 K, x1 = 0.1003 | 1.544
313.15 K, x1 = 0.5999 | 0.323
313.15 K, x1 = 0.8109 | 0.15
318.15 K, x1 = 0.3997 | 0.71
318.15 K, x1 = 0.7001 | 0.264
323.15 K, x1 = 0.4998 | 0.576
323.15 K, x1 = 1 | 0.124
328.15 K, x1 = 0.1003 | 2.107
328.15 K, x1 = 0.2 | 1.611
328.15 K, x1 = 0.3997 | 0.922
333.15 K, x1 = 0.2997 | 1.4
338.15 K, x1 = 0.3997 | 1.17
338.15 K, x1 = 0.8109 | 0.381
338.15 K, x1 = 1 | 0.253
343.15 K, x1 = 0.1003 | 2.77
343.15 K, x1 = 0.5999 | 0.772
353.15 K, x1 = 0.3997 | 1.614

101 kPa
Details | viscosity [mPa·s]
293.15 K, x1 = 0.2997 | 42.06
293.15 K, x1 = 0.3997 | 58.56
293.15 K, x1 = 0.5999 | 96.13
293.15 K, x1 = 0.8998 | 161.7
298.15 K, x1 = 0.1003 | 10.17
298.15 K, x1 = 1 | 149.6
303.15 K, x1 = 0.2997 | 25.7
303.15 K, x1 = 0.7001 | 74.98
303.15 K, x1 = 0.8109 | 91.64
303.15 K, x1 = 0.8998 | 105.4
308.15 K, x1 = 0.8109 | 75.58
308.15 K, x1 = 1 | 100.2
313.15 K, x1 = 0.1003 | 5.27
313.15 K, x1 = 0.5999 | 40.83
313.15 K, x1 = 0.8109 | 62.45
318.15 K, x1 = 0.3997 | 19.73
318.15 K, x1 = 0.7001 | 42.06
323.15 K, x1 = 0.4998 | 22.1
323.15 K, x1 = 1 | 58.45
328.15 K, x1 = 0.1003 | 3.179
328.15 K, x1 = 0.2 | 6.358
328.15 K, x1 = 0.3997 | 14.21
333.15 K, x1 = 0.2997 | 8.621
333.15 K, x1 = 0.3997 | 12.05
338.15 K, x1 = 0.3997 | 10.36
338.15 K, x1 = 0.8109 | 26.89
338.15 K, x1 = 1 | 36.58
343.15 K, x1 = 0.1003 | 2.166
343.15 K, x1 = 0.5999 | 15.34
353.15 K, x1 = 0.3997 | 7.134

C1CC[NH2+]C1.O=[N+]([O-])[O-] + CC1COC(=O)O1
100 kPa
Details | electrical conductivity [S/m] | viscosity [mPa·s]
283.15 K, x2 = 0.38 | – | 23
298.15 K, x2 = 0.8865 | 0.99 | –
298.15 K, x2 = 0.8938 | 0.93 | –
313.15 K, x2 = 0 | – | 21
323.15 K, x2 = 0.5 | – | 6.1
333.15 K, x2 = 0.7 | – | 3.1
333.15 K, x2 = 0.78 | – | 2.6
343.15 K, x2 = 0.38 | – | 5.2
343.15 K, x2 = 0.6 | – | 3.4
343.15 K, x2 = 0.7 | – | 2.7
353.15 K, x2 = 0 | – | 9.3
353.15 K, x2 = 0.6 | – | 2.9
353.15 K, x2 = 0.7 | – | 2.3
